Earlier results in patent US7747395B2, “Method of inhibitor design and identification using a 3-D structure of human peptide deformylase” (Sloan-Kettering Institute for Cancer Research, priority 2007, dated 2010).

Tested on: drug resistant bacterial strains
Settings: cited from earlier work

CC(C)(C)[C@H](NC(=O)[C@H](CC1CCCC1)CN(O)C=O)C(=O)N1CCN(Cc2ccc3c(c2)OCO3)CC1 [BB-83698]
antibacterial activity in vitro: broad spectrum activity in vitro against drug resistant bacterial strains
